Usually IC50 stands for the concentration needed to halve the response being measured.

“Also recorded” adds a separate entry of the source.

T1 sequence (O95180 whole entry): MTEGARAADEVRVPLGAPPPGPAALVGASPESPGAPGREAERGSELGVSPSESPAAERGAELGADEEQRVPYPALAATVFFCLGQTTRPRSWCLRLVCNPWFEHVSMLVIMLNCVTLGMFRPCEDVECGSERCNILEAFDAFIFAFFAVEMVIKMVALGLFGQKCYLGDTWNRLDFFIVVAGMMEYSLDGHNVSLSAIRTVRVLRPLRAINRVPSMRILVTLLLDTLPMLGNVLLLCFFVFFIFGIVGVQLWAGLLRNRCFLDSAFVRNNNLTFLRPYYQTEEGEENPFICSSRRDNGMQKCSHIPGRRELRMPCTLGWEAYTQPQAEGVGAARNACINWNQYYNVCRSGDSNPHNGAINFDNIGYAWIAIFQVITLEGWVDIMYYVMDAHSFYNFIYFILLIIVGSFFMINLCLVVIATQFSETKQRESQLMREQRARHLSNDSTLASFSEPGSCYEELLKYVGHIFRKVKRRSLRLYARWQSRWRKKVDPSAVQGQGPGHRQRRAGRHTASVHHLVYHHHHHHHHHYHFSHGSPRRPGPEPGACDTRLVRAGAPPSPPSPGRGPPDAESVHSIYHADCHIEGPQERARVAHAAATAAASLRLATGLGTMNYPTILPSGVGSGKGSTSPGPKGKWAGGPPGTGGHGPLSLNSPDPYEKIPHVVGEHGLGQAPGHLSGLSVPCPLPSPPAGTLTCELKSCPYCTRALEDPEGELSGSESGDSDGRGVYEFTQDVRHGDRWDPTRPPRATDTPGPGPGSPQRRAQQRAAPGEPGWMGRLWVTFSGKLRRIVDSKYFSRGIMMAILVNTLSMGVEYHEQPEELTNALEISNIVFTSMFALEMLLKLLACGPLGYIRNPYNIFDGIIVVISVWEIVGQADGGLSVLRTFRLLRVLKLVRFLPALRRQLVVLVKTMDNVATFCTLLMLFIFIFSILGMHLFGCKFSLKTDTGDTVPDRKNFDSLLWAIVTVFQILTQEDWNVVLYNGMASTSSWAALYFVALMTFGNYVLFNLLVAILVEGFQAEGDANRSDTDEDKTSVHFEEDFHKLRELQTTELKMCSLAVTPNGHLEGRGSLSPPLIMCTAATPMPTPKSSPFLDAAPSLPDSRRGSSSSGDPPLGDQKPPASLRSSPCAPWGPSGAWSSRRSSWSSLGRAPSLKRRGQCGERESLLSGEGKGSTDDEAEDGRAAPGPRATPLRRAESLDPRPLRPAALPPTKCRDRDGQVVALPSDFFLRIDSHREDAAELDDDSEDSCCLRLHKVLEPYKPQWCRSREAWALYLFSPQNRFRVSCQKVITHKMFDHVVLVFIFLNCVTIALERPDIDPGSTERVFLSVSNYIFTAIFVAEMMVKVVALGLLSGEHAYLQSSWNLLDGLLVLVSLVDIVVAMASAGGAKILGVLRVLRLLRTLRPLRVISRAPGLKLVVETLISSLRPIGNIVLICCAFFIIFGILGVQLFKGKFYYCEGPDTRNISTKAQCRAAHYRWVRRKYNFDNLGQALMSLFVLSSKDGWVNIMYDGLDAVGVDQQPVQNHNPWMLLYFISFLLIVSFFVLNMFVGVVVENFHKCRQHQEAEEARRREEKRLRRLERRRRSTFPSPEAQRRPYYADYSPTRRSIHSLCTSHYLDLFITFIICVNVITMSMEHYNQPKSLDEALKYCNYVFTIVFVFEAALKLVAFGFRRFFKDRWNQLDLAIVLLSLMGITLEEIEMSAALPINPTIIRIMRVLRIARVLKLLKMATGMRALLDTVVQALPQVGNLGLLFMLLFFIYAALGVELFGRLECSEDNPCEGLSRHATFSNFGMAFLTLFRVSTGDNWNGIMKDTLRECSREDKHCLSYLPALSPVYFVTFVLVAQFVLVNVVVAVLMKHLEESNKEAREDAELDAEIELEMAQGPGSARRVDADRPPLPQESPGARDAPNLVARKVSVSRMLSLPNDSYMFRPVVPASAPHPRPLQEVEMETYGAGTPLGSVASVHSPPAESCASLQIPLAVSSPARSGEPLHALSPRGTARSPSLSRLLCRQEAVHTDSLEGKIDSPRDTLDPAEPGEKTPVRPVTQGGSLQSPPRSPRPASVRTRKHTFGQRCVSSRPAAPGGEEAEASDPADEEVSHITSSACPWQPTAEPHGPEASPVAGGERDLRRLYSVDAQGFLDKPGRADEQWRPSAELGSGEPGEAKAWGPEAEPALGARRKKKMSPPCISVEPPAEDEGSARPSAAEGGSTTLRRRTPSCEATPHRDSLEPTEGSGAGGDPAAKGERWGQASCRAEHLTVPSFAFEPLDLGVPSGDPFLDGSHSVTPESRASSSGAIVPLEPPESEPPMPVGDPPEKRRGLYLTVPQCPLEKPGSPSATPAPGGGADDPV

The first assay concerns the target T1, human Cav3.2 channels (Homo sapiens, UniProt O95180).
T1 construct: expressed in transfected cells
Description: T-type calcium blocking action: intracellular calcium concentration in cells steadily expressing human Cav3.2 channels. Format: cell-based. The following applies: HEK293 cells steadily expressing human Cav3.2 channels; Fluo-4 AM fluorescence increase after KCl stimulus. An excerpt: (1) Construction of Cells Steadily Expressing Human Cav3.2 Channels
A sequence obtained by adding HindIII site and a kozak sequence (GCCACC) to the 5′-side of human Cav3.2 channel ORF (Open Reading Frame) gene and adding a KpnI site to the 3′-side of the gene, was incorporated into pcDNA3.1 (+) (Thermo Fisher Scientific, #V790-20), and the plasmid was introduced into HEK293 cells (ATCC No. CRL-1573) according to the protocol of FuGENE (registered trademark) HD Transfection Reagent (Promega, #E2311).
(2) Method for Measuring Intracellular Calcium Concentration
The cell strain steadily expressing human Cav3.2 channels as produced by the testing method (1) was seeded on a 96-well plate using DMEM including 10% FBS, and the cells were cultured for 48 hours under the conditions of 37° C. and 5% CO2. Subsequently, the medium was removed, and each of the wells were washed with buffer A and treated with 80 μL of a fluorescent dye solution including a mixed liquid of 22 μg of a fluorescent calcium indicator, Fluo-4 AM (Dojindo Molecular Technologies, Inc., #F311), 20 μL of dimethyl sulfoxide (DMSO), 1 μL of 10% Pluronic F-127 (Thermo Fisher Scientific, #P6866), and 4 mL of buffer A. After the cells were left to stand for 45 minutes at room temperature under light-shielded conditions, and then the cells were washed with buffer B. DMSO as a negative control and various test compound solutions each obtained by dissolving a test compound dissolved in DMSO, in buffer B so as to obtain a 10-fold concentration of the evaluation concentration, were introduced into respective wells. The final concentration of DMSO was adjusted to 0.1%. The cells were left to stand for another 15 minutes at room temperature under light-shielded conditions, and measurement was made using a microplate reader, EnVision (PerkinElmer Inc.) using the following method. First, the background fluorescence of each well was measured, subsequently an ionophore was introduced into each well, and the baseline fluorescence was measured. Subsequently, buffer B having 83.8 mM KCl added thereto was introduced, and an increase in fluorescence caused by calcium influx generated by the stimulus was measured for 10 seconds. The percentage inhibition was calculated from the maximum fluorescence increase value from the baseline, the logarithmic value of the test compound concentration and the inhibitory activity are plotted, and thereby the IC50 value was calculated. The measurement was carried out by observing the fluorescence at 510 nm that was emitted when the cells were irradiated with excitation light at 485 nm.
Buffer A: 140 mM NaCl, 5 mM KCl, 1 mM MgCl2, 0.5 mM CaCl2, 10 mM Glucose, 10 mM HEPES, pH 7.3
Buffer B: 137.9 mM Choline-Cl, 4.1 mM KCl, 1 mM MgCl2, 0.5 mM CaCl2, 10 mM Glucose, 10 mM HEPES, pH 7.3, equilibrium potential of potassium: −92 mV
(In general: Calcium assays in cells follow changes in intracellular calcium, usually with a dye or a luminescent sensor.)
With `O=C(N[C@@H]1CCCN(c2cncc(C(F)(F)F)c2)C1)[C@H]1C[C@@H]1c1nc2ccccc2[nH]1` [Example 186, (1S,23)-2-(1H-benzo[d]imidazol-2-yl)-N—((R)-1-(5-(trifluoromethyl)pyridin-3-yl)piperidin-3-yl)cyclopropane-1-carboxyamide], the IC50 was 190 nM. Same read-out and setting: then `O=C(N[C@@H]1CCN(c2ncc(C(F)(F)F)cn2)C1)[C@H]1C[C@@H]1c1nc2ccccc2[nH]1` [Example 56, (1S,2S)-2-(1H-benzo[d]imidazol-2-yl)-N—((R)-1-(5-(trifluoromethyl)pyrimidin-2-yl)pyrrolidin-3-yl)cyclopropane-1-carboxyamide], with 290 nM; and `O=C(N[C@H]1CCN(c2ccc(C(F)(F)F)nc2)C1)[C@H]1C[C@@H]1c1nc2ccccc2[nH]1` [Example 55, (1S,25)-2-(1H-benzo[d]imidazol-2-yl)-N—((S)-1-(6-(trifluoromethyl)pyridin-3-yl)pyrrolidin-3-yl)cyclopropane-1-carboxyamide], with 470 nM. Still for that read-out and setting: then `COc1ncc(C(F)(F)F)cc1N1CC[C@@H](NC(=O)Cc2ccc(C3CC3)cc2)C1` [Example 128, (R)-2-(4-cyclopropylphenyl)-N-(1-(2-methoxy-5-(trifluoromethyl)pyridin-3-yl)pyrrolidin-3-yl)acetamide], with over 10000 nM; and `CS(=O)(=O)c1cccc(N2CC[C@@H](NC(=O)[C@H]3C[C@@H]3c3nc4ccccc4[nH]3)C2)c1` [Example 59, (1S,2S)-2-(1H-benzo[d]imidazol-2-yl)-N—((R)-1-(3-(methylsulfonyl)phenyl)pyrrolidin-3-yl)cyclopropane-1-carboxyamide], with 1800 nM. On the same count and under the same terms, the result for `NC(C(=O)N[C@@H]1CCN(c2cncc(C(F)(F)F)c2)C1)c1ccc(C2CC2)cc1` (stereo partly drawn) [Example 137B, 2-amino-2-(4-cyclopropylphenyl)-N((R)-1-(5-(trifluoromethyl)pyridin-3-yl)pyrrolidin-3-yl)acetamide] reads 820 nM; that for `O=C(Cc1ccc(C2CC2)cc1)NC1CN(c2ccc(C(F)(F)F)cc2)C1` [Example 169, 2-(4-Cyclopropylphenyl)-N-(1-(4-(trifluoromethyl)phenyl)azetidin-3-yl)acetamide], over 10000 nM; that for `O=C(N[C@@H]1CCN(c2ccc(F)c(C(F)(F)F)c2)C1)[C@H]1C[C@@H]1c1nc2ccccc2[nH]1` [Example 57, (1S,2S)-2-(1H-benzo[d]imidazol-2-yl)-N—((R)-1-(4-fluoro-3-(trifluoromethyl)phenyl)pyrrolidin-3-yl)cyclopropane-1-carboxyamide], 20 nM.

For the compound `O=C(N[C@@H]1CCN(c2ccnc(C(F)(F)F)c2)C1)[C@H]1C[C@@H]1c1nc2ccccc2[nH]1` [Example 62, (1S,2S)-2-(1H-benzo[d]imidazol-2-yl)-N—((R)-1-(2-(trifluoromethyl)pyridin-4-yl)pyrrolidin-3-yl)cyclopropane-1-carboxyamide], the IC50 stood at 410 nM.

Turning to `O=C(Cc1ccc(C2CC2)cc1)N[C@@H]1CCN(c2cc(C(F)(F)F)c3nccn3c2)C1` [Example 20, (R)-2-(4-cyclopropylphenyl)-N-(1-(8-(trifluoromethyl)imidazo[1,2-a]pyridin-6-yl)pyrrolidin-3-yl)acetamide], the IC50 was over 10000 nM. On the same count and under the same terms, the result for `O=C(N[C@@H]1CCN(c2ccc(F)c(C(F)(F)F)c2)C1)[C@H]1C[C@@H]1c1ncc2ccccc2n1` [Example 58, (1S,2S)—N—((R)-1-(4-fluoro-3-(trifluoromethyl)phenyl)pyrrolidin-3-yl)-2-(quinazolin-2-yl)cyclopropane-1-carboxyamide] reads 4400 nM; that for `O=C(N[C@@H]1CCN(c2cncc(C(F)(F)F)c2)C1)[C@H]1C[C@@H]1c1nc2cc(F)c(F)cc2o1` [Example 45], 11 nM; that for `N#Cc1ccc2[nH]c(C3CC3C(=O)N[C@@H]3CCN(c4ccc(C(F)(F)F)nc4)C3)nc2c1` (single isomer, unassigned) [Example 61A], 1100 nM. For the compound `N#Cc1cccc(N2CC[C@@H](NC(=O)[C@H]3C[C@@H]3c3nc4ccccc4[nH]3)C2)c1` [Example 60, (1S,2S)-2-(1H-benzo[d]imidazol-2-yl)-N—((R)-1-(3-cyanophenyl)pyrrolidin-3-yl)cyclopropane-1-carboxyamide], the IC50 was 470 nM.

With `N#Cc1ccc2[nH]c(C3CC3C(=O)N[C@@H]3CCN(c4ccc(C(F)(F)F)nc4)C3)nc2c1` (single isomer, unassigned) [Example 61B], the IC50 is 2200 nM. Still for that read-out and setting: then `O=C(N[C@@H]1CCN(c2ccc(C(F)(F)F)nn2)C1)[C@H]1C[C@@H]1c1nc2ccccc2[nH]1` [Example 69, (1S,2S)-2-(1H-benzo[d]imidazol-2-yl)-N—((R)-1-(6-(trifluoromethyl)pyridazin-3-yl)pyrrolidin-3-yl)cyclopropane-1-carboxyamide], with 1200 nM. Turning to `COc1ncc(N2CC[C@@H](NC(=O)[C@H]3C[C@@H]3c3nc4ccccc4[nH]3)C2)cc1C(F)(F)F` [Example 67, (1S,2S)-2-(1H-benzo[d]imidazol-2-yl)-N—((R)-1-(6-methoxy-5-(trifluoromethyl)pyridin-3-yl)pyrrolidin-3-yl) cyclopropane-1-carboxyamide], the IC50 came to 29 nM.

Consider `O=C(Cc1ccc(C2CC2)cc1)N[C@@H]1CCCN(c2ccc(C(F)(F)F)nc2)C1` [Example 130, (R)-2-(4-cyclopropylphenyl)-N-(1-(6-(trifluoromethyl)pyridin-3-yl)piperidin-3-yl)acetamide], for which the IC50 was over 10000 nM. Still for that read-out and setting: then `O=C(Cc1ccc(C2CC2)cc1)N[C@@H]1CCN(c2ccc(OCC(F)(F)F)nc2)C1` [Example 125, (R)-2-(4-cyclopropylphenyl)-N-(1-(6-(2,2,2-trifluoroethoxy)pyridin-3-yl)pyrrolidin-3-yl)acetamide], with over 10000 nM.

The test system of the next assay is SD rats. The assay is described as follows: Rat formalin test. The format is in vivo. As to conditions: po, 30 mg/kg orally once, pain behavior time from 15 to 30 minutes after formalin administration vs vehicle group, read-out: Inhibition ratio (pain behavior inhibition ratio). The protocol: 30 mg/kg of a vehicle or a test substance was orally administrated to SD rats once, and according to the method described in McNamara C. R., Mandel-Brehm J., Bautista D. M., Siemens J., Deranian K. L., Zhao M., Hayward N. J., Chong J. A., Julius D., Moran M. M., Fanger C. M.: TRPA1 mediates formalin-induced pain. Proc. Natl. Acad. Sci. U.S.A. 104, 2007, 13525-13530, 50 μL of a 2.0% formalin solution as a pain-inducing substance was subcutaneously administered under the skin of the plantar plate of the right hind limb of each rat.
Regarding the evaluation, the pain behavior inhibition ratio was determined from the pain behavior time of each test substance-administered group with respect to the pain behavior time of the vehicle-administered group for 15 minutes measured from 15 minutes to 30 minutes after the administration.
On to `O=C(N[C@@H]1CCN(c2ccc(F)c(C(F)(F)F)c2)C1)[C@H]1C[C@@H]1c1nc2ccccc2[nH]1` [Example 57, (1S,2S)-2-(1H-benzo[d]imidazol-2-yl)-N—((R)-1-(4-fluoro-3-(trifluoromethyl)phenyl)pyrrolidin-3-yl)cyclopropane-1-carboxyamide], for which the inhibition in vivo at 30 mg/kg was under 10%. The same measure, in the same setting: the result for `Cn1ncc2cc(CC(=O)N[C@@H]3CCN(c4ccc(C(F)(F)F)nc4)C3)ccc21` [Example 144, (R)-2-(1-methyl-1H-indazol-5-yl)-N-(1-(6-(trifluoromethyl)pyridin-3-yl)pyrrolidin-3-yl)acetamide] reads at least 20%; that for `CC(C)c1ccc(CC(=O)N[C@@H]2CCN(c3cncc(C(F)(F)F)c3)C2)cc1` [Example 4, (R)-2-(4-isopropylphenyl)-N-(1-(5-(trifluoromethyl)pyridin-3-yl)pyrrolidin-3-yl)acetamide], at least 20%.

The subject of another assay is mouse PSNL model. Description: Mechanical allodynia in mouse partial sciatic nerve ligation (PSNL) model. The format is in vivo. As to conditions: 30 mg/kg orally administered, compared with the vehicle group. The source says:
The production of a mouse PSNL model was achieved according to the method of Seltzer et al. A mouse was subjected to inhalation anesthesia with isoflurane. The femoral region of the mouse was shaved and disinfected with isodine. The skin on a thighbone of the mouse was incised, the fascia directly under the skin was cut, and the muscle heads of the musculus biceps femoris were split. The sciatic nerve directly under the fascia was checked, and then the sciatic nerve was detached so as not to damage the nerve. The needle of a needle with 8-0 silk thread was passed through the sciatic nerve to penetrate therethrough, and the sciatic nerve was ligated for about ½ to ⅓ of the whole nerve. The skin was sutured, and the mouse was raised for about 7 days. […]
The measurement of the pain threshold was carried out after transferring the mice into a cage for measurement and waiting for the exploratory behavior to disappear. Regarding the pain threshold (paw withdrawal filament ((g)), the plantar plates of the mice were stimulated with von Frey filaments (Sttoelting Co.: TOUCH-TEST SENSORY EVLUATOR) having different stimulus intensities, and the presence or absence of an escape response was observed. The 50% threshold was calculated by an up-down method with reference to the method of Chaplan et al. (Quantitative assessment of tactile allodynia in the rat paw. J neurosci Methods, 53, 1994, 55-63). […]
In the case of `Cn1ncc2cc(CC(=O)N[C@@H]3CCN(c4ccc(C(F)(F)F)nc4)C3)ccc21` [Example 144, (R)-2-(1-methyl-1H-indazol-5-yl)-N-(1-(6-(trifluoromethyl)pyridin-3-yl)pyrrolidin-3-yl)acetamide], the “mechanical allodynia (pain threshold, von Frey filament test)” value is given as “inhibited mechanical allodynia statistically significantly; also recorded: suppressed statistically significantly”.

These data come from US20220363667A1 (Nippon Chemiphar Co., Ltd., priority 2018, published 2022).
